The values that follow come from patent US9918990B2, “Substituted pyrrolo[2,3-c]pyridines and pyrazolo[3,4-c]pyridines as BET protein inhibitors” (Incyte Corporation, priority 2013, dated 2018).

A word on the IC50: it is the concentration that gives 50% inhibition.

In one assay the target is BRD4-BD1 (Homo sapiens (Human), UniProt O60885). In words: BRD4 AlphaScreen assay, BRD4-BD1. It counts as binding. To be noted: H4Ac4 peptide, 75 min, room temperature, read-out: BRD4 BD-1 enzyme IC50. The procedure, abridged:
(§1)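 AlphaScreen read after 75 min dark incubation at room temperature, inhibitors serially diluted in DMSO and added before other components. IC50 from fit of percent control activity versus log inhibitor concentration.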

The next assay has as its target BRD4-BD2 (Homo sapiens (Human), UniProt O60885). In words: BRD4 AlphaScreen assay, BRD4-BD2. The assay is classed as binding. To be noted: H4Ac4 peptide, 75 min, room temperature, read-out: BRD4 BD-2 enzyme IC50. The procedure, abridged:
as §1

The next assay concerns KMS.12.BM cells. Description: KMS.12.BM cell viability assay (Cell Titer-GLO, ATP quantitation). The assay is classed as cell-based. To be noted: Homo sapiens, 72 h, 3 days, concentration required for 50% cell death, read-out: KMS cellular IC50. The procedure, abridged: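 Human myeloma KMS.12.BM cells, 5000 cells/well in RPMI with 10% FBS, were exposed to a compound concentration range for 3 days. Viability was read by Cell Titer-GLO ATP luminescence relative to untreated cells; IC50 is the concentration giving 50% cell death.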
Background: ATP-based viability assays read luminescence as a measure of living cells.

In the next assay the test system is C-myc. Description: KMS.12.BM C-myc ELISA assay. It counts as cell-based. To be noted: Homo sapiens; KMS.12.BM cells, 2 hours, concentration required for 50% C-myc inhibition. The procedure, abridged: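 Human myeloma KMS.12.BM cells in RPMI/10% FBS were exposed to a compound concentration range for 2 h, then lysed with protease inhibitors. C-myc in clarified lysates was measured by ELISA. IC50 is the concentration giving 50% C-myc inhibition relative to untreated cells.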

Structures are written as SMILES. Counter-ions that a name gives are not always drawn.

Regarding `Cn1cc(-c2ccc3c(ncn3C)c2Oc2ccccc2)c2cc[nH]c2c1=O` [Example 56, 6-Methyl-4-(1-methyl-4-phenoxy-1H-benzimidazol-5-yl)-1,6-dihydro-7H-pyrrolo[2,3-c]pyridin-7-one], the IC50 was below 100 nM on BRD4-BD1, below 100 nM on BRD4-BD2, at most 1000 nM in the assay with KMS.12.BM cells and at most 1000 nM in the assay on C-myc.

As to `Cn1cc(-c2ccc3c(ncn3C)c2Oc2ccccc2F)c2cc[nH]c2c1=O` [Example 57, 4-[4-(2-Fluorophenoxy)-1-methyl-1H-benzimidazol-5-yl]-6-methyl-1,6-dihydro-7H-pyrrolo[2,3-c]pyridin-7-one], the IC50 was below 100 nM on BRD4-BD1, below 100 nM on BRD4-BD2, at most 1000 nM in the assay with KMS.12.BM cells and at most 1000 nM in the assay on C-myc.

Take `Cn1cc(-c2ccc3c(ncn3C)c2Oc2cccc(F)c2)c2cc[nH]c2c1=O` [Example 58, 4-[4-(3-Fluorophenoxy)-1-methyl-1H-benzimidazol-5-yl]-6-methyl-1,6-dihydro-7H-pyrrolo[2,3-c]pyridin-7-one]: the IC50 at BRD4-BD1 was below 100 nM; at BRD4-BD2 it was below 100 nM; in the assay on KMS.12.BM cells it was at most 1000 nM; in the assay on C-myc it was at most 1000 nM.

Turning to `Cn1cc(-c2ccc3c(ncn3C)c2Oc2ccc(F)cc2)c2cc[nH]c2c1=O` [Example 59, 4-[4-(4-Fluorophenoxy)-1-methyl-1H-benzimidazol-5-yl]-6-methyl-1,6-dihydro-7H-pyrrolo[2,3-c]pyridin-7-one], the concentration for half-maximal inhibition (IC50) on BRD4-BD1 is below 100 nM; on BRD4-BD2 it was below 100 nM; with KMS.12.BM cells it was at most 1000 nM; in the assay on C-myc, at most 1000 nM.

Turning to `Cn1cc(-c2ccc3c(c2OCC2CCC2)n(CCN2CCOCC2)c(=O)n3C)c2cc[nH]c2c1=O` [Example 60, 4-(Cyclobutylmethoxy)-1-methyl-5-(6-methyl-7-oxo-6,7-dihydro-1H-pyrrolo[2,3-c]pyridin-4-yl)-3-(2-morpholin-4-ylethyl)-1,3-dihydro-2H-benzimidazol-2-one], the half-maximal inhibitory concentration (IC50) at BRD4-BD1 is below 100 nM; at BRD4-BD2, below 100 nM; in the assay on KMS.12.BM cells it was at most 1000 nM; in the assay with C-myc, at most 1000 nM.

Consider `Cn1cc(-c2ccc3c(c2OCC2CCC2)n(CCCC#N)c(=O)n3C)c2cc[nH]c2c1=O` [Example 61, 4-[7-(Cyclobutylmethoxy)-3-methyl-6-(6-methyl-7-oxo-6,7-dihydro-1H-pyrrolo[2,3-c]pyridin-4-yl)-2-oxo-2,3-dihydro-1H-benzimidazol-1-yl]butanenitrile], for which the IC50 at BRD4-BD1 is below 100 nM; on BRD4-BD2, below 100 nM; in the assay on KMS.12.BM cells, at most 1000 nM; in the assay on C-myc, at most 1000 nM.

On to `Cn1cc(-c2ccc3c(c2OCC2CCC2)n(CCC#N)c(=O)n3C)c2cc[nH]c2c1=O` [Example 62, 3-[7-(Cyclobutylmethoxy)-3-methyl-6-(6-methyl-7-oxo-6,7-dihydro-1H-pyrrolo[2,3-c]pyridin-4-yl)-2-oxo-2,3-dihydro-1H-benzimidazol-1-yl]propanenitrile], for which the half-inhibitory concentration (IC50) is below 100 nM on BRD4-BD1, below 100 nM at BRD4-BD2, at most 1000 nM with KMS.12.BM cells and at most 1000 nM in the assay on C-myc.

Regarding `Cn1cc(-c2ccc3c(c2OCC2CCC2)n(Cc2ccccc2)c(=O)n3C)c2cc[nH]c2c1=O` [Example 64, 3-Benzyl-4-(cyclobutylmethoxy)-1-methyl-5-(6-methyl-7-oxo-6,7-dihydro-1H-pyrrolo[2,3-c]pyridin-4-yl)-1,3-dihydro-2H-benzimidazol-2-one], the IC50 at BRD4-BD1 was below 100 nM; at BRD4-BD2, below 100 nM; in the assay on KMS.12.BM cells, at most 1000 nM; in the assay on C-myc, at most 1000 nM.

Consider `CC(=O)N1CCN(CCn2c(=O)n(C)c3ccc(-c4cn(C)c(=O)c5[nH]ccc45)c(OCC4CCC4)c32)CC1` [Example 66, 3-(2-(4-Acetylpiperazin-1-yl)ethyl)-4-(cyclobutylmethoxy)-1-methyl-5-(6-methyl-7-oxo-6,7-dihydro-1H-pyrrolo[2,3-c]pyridin-4-yl)-1H-benzo[d]imidazol-2(3H)-one], for which the IC50 is below 100 nM at BRD4-BD1, below 100 nM at BRD4-BD2, at most 1000 nM in the assay with KMS.12.BM cells and at most 1000 nM in the assay on C-myc.

For the compound `CN1CCN(CCn2c(=O)n(C)c3ccc(-c4cn(C)c(=O)c5[nH]ccc45)c(OCC4CCC4)c32)CC1` [Example 68, 4-(Cyclobutylmethoxy)-1-methyl-5-(6-methyl-7-oxo-6,7-dihydro-1H-pyrrolo[2,3-c]pyridin-4-yl)-3-[2-(4-methylpiperazin-1-yl)ethyl]-1,3-dihydro-2H-benzimidazol-2-one], the IC50 is below 100 nM at BRD4-BD1, below 100 nM on BRD4-BD2, at most 1000 nM with KMS.12.BM cells and at most 1000 nM with C-myc.

In the case of `Cn1cc(-c2ccc3c([nH]c(=O)n3CCN3CCOCC3)c2Oc2ccccc2)c2cc[nH]c2c1=O` [Example 69, 5-(6-Methyl-7-oxo-6,7-dihydro-1H-pyrrolo[2,3-c]pyridin-4-yl)-1-(2-morpholin-4-ylethyl)-4-phenoxy-1,3-dihydro-2H-benzimidazol-2-one trifluoroacetate], the half-inhibitory concentration (IC50) is below 100 nM at BRD4-BD1, below 100 nM on BRD4-BD2, at most 1000 nM with KMS.12.BM cells and at most 1000 nM in the assay on C-myc.

Consider `C[C@@H]1CN(CCn2c(=O)[nH]c3c(Oc4ccccc4)c(-c4cn(C)c(=O)c5[nH]ccc45)ccc32)C[C@H](C)O1` [Example 70, 1-{2-[(2R,6S)-2,6-Dimethylmorpholin-4-yl]ethyl}-5-(6-methyl-7-oxo-6,7-dihydro-1H-pyrrolo[2,3-c]pyridin-4-yl)-4-phenoxy-1,3-dihydro-2H-benzimidazol-2-one trifluoroacetate], for which the IC50 was below 100 nM at BRD4-BD1, below 100 nM on BRD4-BD2, at most 1000 nM in the assay on KMS.12.BM cells and at most 1000 nM with C-myc.

On to `Cn1cc(-c2ccc3c([nH]c(=O)n3C)c2OCC2CC2)c2cc[nH]c2c1=O` [Example 74, 4-(Cyclopropylmethoxy)-1-methyl-5-(6-methyl-7-oxo-6,7-dihydro-1H-pyrrolo[2,3-c]pyridin-4-yl)-1,3-dihydro-2H-benzimidazol-2-one], for which the half-inhibitory concentration (IC50) on BRD4-BD1 was below 100 nM; at BRD4-BD2, below 100 nM; in the assay with KMS.12.BM cells it was at most 1000 nM; in the assay on C-myc, at most 1000 nM.

`Cn1cc(-c2ccc3ncc(=O)[nH]c3c2Oc2ccc(F)cc2F)c2cn[nH]c2c1=O` [Example 75, 8-(2,4-Difluorophenoxy)-7-(6-methyl-7-oxo-6,7-dihydro-1H-pyrazolo[3,4-c]pyridin-4-yl)quinoxalin-2(1H)-one]: the IC50 is below 100 nM at BRD4-BD1, below 100 nM at BRD4-BD2, at most 1000 nM in the assay on KMS.12.BM cells and at most 1000 nM in the assay on C-myc.

For the compound `Cn1cc(-c2ccc3c(cnn3C)c2OCC2CC2)c2cc[nH]c2c1=O` [Example 76, 4-[4-(Cyclopropylmethoxy)-1-methyl-1H-indazol-5-yl]-6-methyl-1,6-dihydro-7H-pyrrolo[2,3-c]pyridin-7-one], the IC50 is below 100 nM on BRD4-BD1, below 100 nM at BRD4-BD2, at most 1000 nM in the assay on KMS.12.BM cells and at most 1000 nM in the assay on C-myc.

Regarding `Cn1cc(-c2ccc3c(cnn3C)c2OCC2CC2)c2cn[nH]c2c1=O` [Example 77, 4-[4-(Cyclopropylmethoxy)-1-methyl-1H-indazol-5-yl]-6-methyl-1,6-dihydro-7H-pyrazolo[3,4-c]pyridin-7-one], the half-maximal inhibitory concentration (IC50) on BRD4-BD1 was below 100 nM; at BRD4-BD2, below 100 nM; in the assay with KMS.12.BM cells it was at most 1000 nM; in the assay with C-myc it was at most 1000 nM.
